Experimental data taken from ChEMBL document CHEMBL3745676, “Alkylamino derivatives of N-benzylpyrazine-2-carboxamide: synthesis and antimycobacterial evaluation” (Medchemcomm, 2015).
The source made the active and inactive calls. The calls are words filed in the database; no cut-off is given here.

Assays:
[1] = Lipophilicity, logK of the compound by RP-HPLC analysis; format: physicochemical
[2] = system: Mycobacterium tuberculosis; experiment: Antimycobacterial activity against Mycobacterium tuberculosis H37Rv CNCTC My 331/88 incubated for 10 to 14 days by microplate alamar blue assay; format: functional
Mycobacterium kansasii = experiment: Antimycobacterial activity against Mycobacterium kansasii CNCTC My 235/80 incubated for 5 to 7 days by microplate alamar blue assay; format: functional
[3] = Cytotoxicity against CRFK cells assessed as cell viability after 4 to 6 days by formazan-based MTS assay; parameters: species or system Felis catus; conditions: cat
[4] = Cytotoxicity against HEL cells assessed as cell viability after 4 to 6 days by microscopic analysis; format: cell-based; conditions: human
[5] = Cytotoxicity against human HeLa cells assessed as cell viability after 4 to 6 days by microscopic analysis; format: cell-based
[6] = Cytotoxicity against African green monkey Vero cells assessed as cell viability after 4 to 6 days by microscopic analysis; format: cell-based; conditions: chlorocebus sabaeus
[7] = Cytotoxicity against MDCK cells assessed as cell viability after 4 to 6 days by formazan-based MTS assay; parameters: species or system Canis lupus familiaris; conditions: dog
[8] = Cytotoxicity against MDCK cells assessed as cell viability after 4 to 6 days by microscopic analysis; format: cell-based, Canis lupus familiaris; conditions: dog
Influenza A virus [9] = experiment: Antiviral activity against Influenza A virus (A/Puerto Rico/8/(H1N1)) assessed as inhibition of virus-induced cytopathic effect after 3 to 6 days by formazan-based MTS assay; format: functional, organism-based
Mycobacterium avium [10] = experiment: Antimycobacterial activity against Mycobacterium avium CNCTC My 80/72 after 5 days by microplate alamar blue assay; format: functional; conditions: CNCTC My 80/72, 120 h
Mycobacterium avium [11] = experiment: Antimycobacterial activity against Mycobacterium avium CNCTC My 152/73 after 5 days by microplate alamar blue assay; format: functional; conditions: CNCTC My 152/73, 120 h
Escherichia coli = experiment: Antibacterial activity against Escherichia coli CCM 4517 after 24 to 48 hrs by broth microdilution method; format: functional
Pseudomonas aeruginosa = experiment: Antibacterial activity against Pseudomonas aeruginosa CCM 1961 after 24 to 48 hrs by broth microdilution method; format: functional
Klebsiella pneumoniae [12] = experiment: Antibacterial activity against Klebsiella pneumoniae D 11750/08 after 24 to 48 hrs by broth microdilution method; format: functional
Klebsiella pneumoniae [13] = experiment: Antibacterial activity against ESBL positive Klebsiella pneumoniae J 14368/08 after 24 to 48 hrs by broth microdilution method; format: functional
Candida albicans = experiment: Antifungal activity against Candida albicans ATCC 44859 after 24 to 48 hrs by broth microdilution method; format: functional
Candida tropicalis = experiment: Antifungal activity against Candida tropicalis 156 after 24 to 48 hrs by broth microdilution method; format: functional
Pichia kudriavzevii = experiment: Antifungal activity against Candida krusei E28 after 24 to 48 hrs by broth microdilution method; format: functional
Nakaseomyces glabratus = experiment: Antifungal activity against Candida glabrata 20/I after 24 to 48 hrs by broth microdilution method; format: functional
Trichosporon asahii = experiment: Antifungal activity against Trichosporon asahii 1188 after 24 to 48 hrs by broth microdilution method; format: functional
Aspergillus fumigatus = experiment: Antifungal activity against Aspergillus fumigatus 231 after 24 to 48 hrs by broth microdilution method; format: functional
Lichtheimia corymbifera = experiment: Antifungal activity against Lichtheimia corymbifera 272 after 24 to 48 hrs by broth microdilution method; format: functional
[14] = system: Trichophyton mentagrophytes; experiment: Antifungal activity against Trichophyton mentagrophytes 445 after 72 to 120 hrs by broth microdilution method; format: functional
Influenza A virus [15] = experiment: Antiviral activity against Influenza A virus (A/Puerto Rico/8/(H1N1)) assessed as inhibition of virus-induced cytopathic effect after 3 to 6 days by microscopic analysis; format: functional, organism-based
Staphylococcus aureus = experiment: Antibacterial activity against methicillin-resistant Staphylococcus aureus H 5996/08 after 24 to 48 hrs by broth microdilution method; format: functional, organism-based

Row | Structure (SMILES) | log K [1] | MIC [2] | MIC (Mycobacterium kansasii) | CC50 [3] | MCC [4] | MCC [5] | MCC [6] | CC50 [7] | MCC [8] | EC50 (Influenza A virus [9]) | MIC (Mycobacterium avium [10]) | MIC (Mycobacterium avium [11]) | MIC95 (Escherichia coli) | MIC95 (Pseudomonas aeruginosa) | MIC95 (Klebsiella pneumoniae [12]) | MIC95 (Klebsiella pneumoniae [13]) | MIC (Candida albicans) | MIC (Candida tropicalis) | MIC (Pichia kudriavzevii) | EC50 (Influenza A virus [15]) | also measured
1 | CCCCCCCNc1nccnc1C(=O)NCc1ccccc1 | 1.809 | > 100 µg/mL | > 100 µg/mL | > 100 µM | 100 µM | > 100 µM | > 100 µM | > 100 µM | 100 µM | > 100 µM | > 100 µg/mL | > 100 µg/mL | > 500 µM | > 500 µM | > 500 µM | > 500 µM | > 500 µM | > 500 µM | > 500 µM | > 100 µM | MIC (Nakaseomyces glabratus): > 500 µM; MIC (Trichosporon asahii): > 500 µM; MIC (Aspergillus fumigatus): > 500 µM; MIC (Lichtheimia corymbifera): > 500 µM; MIC [14]: > 500 µM
2 | CCCCCNc1cncc(C(=O)NCc2ccccc2)n1 | 0.768 | 42 µM | 84 µM | > 100 µM | > 100 µM | > 100 µM | > 100 µM | 33 µM | 20 µM | > 100 µM | > 100 µg/mL | > 100 µg/mL | > 500 µM | > 500 µM | > 500 µM | > 500 µM | > 500 µM | > 500 µM | > 500 µM | > 100 µM | Activity (Staphylococcus aureus): inactive; MIC (Nakaseomyces glabratus): > 500 µM; MIC (Trichosporon asahii): > 500 µM; MIC (Aspergillus fumigatus): > 500 µM; MIC (Lichtheimia corymbifera): > 500 µM; MIC [14]: > 500 µM
3 | O=C(NCc1ccccc1)c1nccnc1NCc1ccccc1 | 1.04 | > 100 µg/mL | > 100 µg/mL | > 100 µM | > 100 µM | > 100 µM | > 100 µM | > 100 µM | 20 µM | > 100 µM | > 100 µg/mL | > 100 µg/mL | – | – | – | – | – | – | – | > 100 µM | –
4 | CCCCNc1cnc(C(=O)NCc2ccccc2)cn1 | 0.424 | 88 µM | > 100 µg/mL | > 100 µM | > 100 µM | > 100 µM | > 100 µM | 57 µM | 100 µM | > 100 µM | > 100 µg/mL | > 100 µg/mL | > 500 µM | > 500 µM | > 500 µM | > 500 µM | > 500 µM | > 500 µM | > 500 µM | > 100 µM | MIC (Nakaseomyces glabratus): > 500 µM; MIC (Trichosporon asahii): > 500 µM; MIC (Aspergillus fumigatus): > 500 µM; MIC (Lichtheimia corymbifera): > 500 µM; MIC [14]: > 500 µM
5 | O=C(NCc1ccccc1)c1nccnc1Cl | – | 50 µM | 100 µg/mL | – | – | – | – | – | – | – | > 100 µg/mL | > 100 µg/mL | – | – | – | – | – | – | – | – | –
6 | CCCCCCCCNc1nccnc1C(=O)NCc1ccccc1 | 2.054 | > 100 µg/mL | > 100 µg/mL | > 100 µM | > 100 µM | > 100 µM | > 100 µM | > 100 µM | 100 µM | > 100 µM | > 100 µg/mL | > 100 µg/mL | > 500 µM | > 500 µM | > 500 µM | > 500 µM | > 500 µM | > 500 µM | > 500 µM | > 100 µM | MIC (Nakaseomyces glabratus): > 500 µM; MIC (Trichosporon asahii): > 500 µM; MIC (Aspergillus fumigatus): > 500 µM; MIC (Lichtheimia corymbifera): > 500 µM; MIC [14]: > 500 µM
7 | CCCCNc1nccnc1C(=O)NCc1ccccc1 | 1.081 | > 100 µg/mL | > 100 µg/mL | > 100 µM | > 100 µM | > 100 µM | > 100 µM | > 100 µM | > 100 µM | > 100 µM | > 100 µg/mL | > 100 µg/mL | > 500 µM | > 500 µM | > 500 µM | > 500 µM | > 500 µM | > 500 µM | > 500 µM | > 100 µM | MIC (Nakaseomyces glabratus): > 500 µM; MIC (Trichosporon asahii): > 500 µM; MIC (Aspergillus fumigatus): > 500 µM; MIC (Lichtheimia corymbifera): > 500 µM; MIC [14]: > 500 µM
